Source: the supplement of paper PMC10307832

Key:
Test in all cases: relative viability (nuclei count vs DMSO), 5 days (fraction); higher = more cells survive
UMC-11 = tested on: UMC-11
How it was run: (§1)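 Lung cancer cell lines were seeded in 1536-well plates and dosed by pin tool the next day, with either a single drug or a fixed anchor-drug dose combined with five library-drug doses (not always all listed) spaced in √10 steps. Five days later, one step fixed the cells and stained their nuclei (final 0.05% Triton X-100, 1% formaldehyde, 1 ug/ml Hoechst), and nuclei were counted on 4× images. Relative viability is the nuclei count in treated wells divided by the count in vehicle wells, and each value is the median of duplicate plates.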

NCI-H1650 = tested on: NCI-H1650
How it was run: as §1

H3255 = tested on: H3255
How it was run: as §1

HCC-15 = tested on: HCC-15
How it was run: as §1

201T = tested on: 201T
How it was run: as §1

NCI-H322M = tested on: NCI-H322M
How it was run: as §1

NCI-H2023 = tested on: NCI-H2023
How it was run: as §1

NCI-H3122 = tested on: NCI-H3122
How it was run: as §1

NCI-H520 = tested on: NCI-H520
How it was run: as §1

NCI-H2170 = tested on: NCI-H2170
How it was run: as §1

NCI-H1734 = tested on: NCI-H1734
How it was run: as §1

NCI-H1793 = tested on: NCI-H1793
How it was run: as §1

NCI-H2347 = tested on: NCI-H2347
How it was run: as §1

NCI-H647 = tested on: NCI-H647
How it was run: as §1

PC-14 = tested on: PC-14
How it was run: as §1

EPLC-272H = tested on: EPLC-272H
How it was run: as §1

LOU-NH91 = tested on: LOU-NH91
How it was run: as §1

COR-L23 = tested on: COR-L23
How it was run: as §1

NCI-H2405 = tested on: NCI-H2405
How it was run: as §1

NCI-H1563 = tested on: NCI-H1563
How it was run: as §1

**Q.** `Nc1ccn([C@@H]2O[C@H](CO)[C@@H](O)[C@@H]2O)c(=O)n1` [Cytarabine] + CS(=O)(=O)CCNCc1ccc(-c2ccc3ncnc(Nc4ccc(OCc5cccc(F)c5)c(Cl)c4)c3c2)o1 [Lapatinib] (partner 2 µM) was tested. Which relative viability (UMC-11; first compound 0.005 µM) did it give?
**A.** 0.632

**Q.** And the relative viability (UMC-11; first compound 0.01581 µM)?
**A.** 0.462

**Q.** What about the relative viability (UMC-11; first compound 0.05 µM) of the same molecule?
**A.** 0.434

**Q.** What about the relative viability (UMC-11; first compound 0.1581 µM) of the same molecule?
**A.** 0.193

**Q.** And the relative viability (UMC-11; first compound 0.5 µM)?
**A.** 0.211

**Q.** What about the relative viability (NCI-H1650; first compound 0.005 µM) of the same molecule?
**A.** 0.807

**Q.** And the relative viability (NCI-H1650; first compound 0.01581 µM)?
**A.** 0.604

**Q.** What about the relative viability (NCI-H1650; first compound 0.05 µM) of the same molecule?
**A.** 0.317

**Q.** What about the relative viability (NCI-H1650; first compound 0.1581 µM) of the same molecule?
**A.** 0.247

**Q.** And the relative viability (NCI-H1650; first compound 0.5 µM)?
**A.** 0.155

**Q.** And the relative viability (H3255; first compound 0.005 µM)?
**A.** 0.268

**Q.** What about the relative viability (H3255; first compound 0.01581 µM) of the same molecule?
**A.** 0.226

**Q.** What about the relative viability (H3255; first compound 0.05 µM) of the same molecule?
**A.** 0.158

**Q.** What about the relative viability (H3255; first compound 0.1581 µM) of the same molecule?
**A.** 0.197

**Q.** What about the relative viability (H3255; first compound 0.5 µM) of the same molecule?
**A.** 0.188

**Q.** And the relative viability (HCC-15; first compound 0.005 µM)?
**A.** 0.785

**Q.** And the relative viability (HCC-15; first compound 0.01581 µM)?
**A.** 0.887

**Q.** And the relative viability (HCC-15; first compound 0.05 µM)?
**A.** 0.693

**Q.** What about the relative viability (HCC-15; first compound 0.1581 µM) of the same molecule?
**A.** 0.615

**Q.** What about the relative viability (HCC-15; first compound 0.5 µM) of the same molecule?
**A.** 0.639

**Q.** What about the relative viability (201T; first compound 0.005 µM) of the same molecule?
**A.** 1.08

**Q.** And the relative viability (201T; first compound 0.01581 µM)?
**A.** 0.997

**Q.** What about the relative viability (201T; first compound 0.05 µM) of the same molecule?
**A.** 1.04

**Q.** What about the relative viability (201T; first compound 0.1581 µM) of the same molecule?
**A.** 0.889

**Q.** And the relative viability (201T; first compound 0.5 µM)?
**A.** 0.919

**Q.** What about the relative viability (NCI-H322M; first compound 0.005 µM) of the same molecule?
**A.** 0.585

**Q.** And the relative viability (NCI-H322M; first compound 0.01581 µM)?
**A.** 0.609

**Q.** And the relative viability (NCI-H322M; first compound 0.05 µM)?
**A.** 0.459

**Q.** What about the relative viability (NCI-H322M; first compound 0.1581 µM) of the same molecule?
**A.** 0.354

**Q.** And the relative viability (NCI-H322M; first compound 0.5 µM)?
**A.** 0.348

**Q.** What about the relative viability (NCI-H2023; first compound 0.005 µM) of the same molecule?
**A.** 0.515

**Q.** And the relative viability (NCI-H2023; first compound 0.01581 µM)?
**A.** 0.224

**Q.** What about the relative viability (NCI-H2023; first compound 0.05 µM) of the same molecule?
**A.** 0.144

**Q.** And the relative viability (NCI-H2023; first compound 0.1581 µM)?
**A.** 0.0848

**Q.** And the relative viability (NCI-H2023; first compound 0.5 µM)?
**A.** 0.0542

**Q.** And the relative viability (NCI-H3122; first compound 0.005 µM)?
**A.** 1.12

**Q.** And the relative viability (NCI-H3122; first compound 0.01581 µM)?
**A.** 0.912

**Q.** And the relative viability (NCI-H3122; first compound 0.05 µM)?
**A.** 0.91

**Q.** And the relative viability (NCI-H3122; first compound 0.1581 µM)?
**A.** 0.676

**Q.** What about the relative viability (NCI-H3122; first compound 0.5 µM) of the same molecule?
**A.** 0.551

**Q.** And the relative viability (NCI-H520; first compound 0.005 µM)?
**A.** 0.557

**Q.** What about the relative viability (NCI-H520; first compound 0.01581 µM) of the same molecule?
**A.** 0.743

**Q.** And the relative viability (NCI-H520; first compound 0.05 µM)?
**A.** 0.911

**Q.** What about the relative viability (NCI-H520; first compound 0.1581 µM) of the same molecule?
**A.** 0.552

**Q.** And the relative viability (NCI-H520; first compound 0.5 µM)?
**A.** 0.47

**Q.** And the relative viability (NCI-H2170; first compound 0.01581 µM)?
**A.** 0.233

**Q.** And the relative viability (NCI-H2170; first compound 0.05 µM)?
**A.** 0.231

**Q.** What about the relative viability (NCI-H2170; first compound 0.1581 µM) of the same molecule?
**A.** 0.19

**Q.** What about the relative viability (NCI-H2170; first compound 0.5 µM) of the same molecule?
**A.** 0.182

**Q.** And the relative viability (NCI-H1734; first compound 0.005 µM)?
**A.** 0.628

**Q.** What about the relative viability (NCI-H1734; first compound 0.01581 µM) of the same molecule?
**A.** 0.341

**Q.** And the relative viability (NCI-H1734; first compound 0.05 µM)?
**A.** 0.481

**Q.** What about the relative viability (NCI-H1734; first compound 0.1581 µM) of the same molecule?
**A.** 0.151

**Q.** What about the relative viability (NCI-H1734; first compound 0.5 µM) of the same molecule?
**A.** 0.134

**Q.** And the relative viability (NCI-H1793; first compound 0.005 µM)?
**A.** 0.846

**Q.** And the relative viability (NCI-H1793; first compound 0.01581 µM)?
**A.** 0.478

**Q.** And the relative viability (NCI-H1793; first compound 0.05 µM)?
**A.** 0.656

**Q.** And the relative viability (NCI-H1793; first compound 0.1581 µM)?
**A.** 0.451

**Q.** What about the relative viability (NCI-H1793; first compound 0.5 µM) of the same molecule?
**A.** 0.338

**Q.** What about the relative viability (NCI-H2347; first compound 0.005 µM) of the same molecule?
**A.** 1.01

**Q.** And the relative viability (NCI-H2347; first compound 0.01581 µM)?
**A.** 0.942

**Q.** And the relative viability (NCI-H2347; first compound 0.05 µM)?
**A.** 0.764

**Q.** And the relative viability (NCI-H2347; first compound 0.1581 µM)?
**A.** 0.659

**Q.** What about the relative viability (NCI-H2347; first compound 0.5 µM) of the same molecule?
**A.** 0.825

**Q.** What about the relative viability (NCI-H647; first compound 0.005 µM) of the same molecule?
**A.** 0.596

**Q.** What about the relative viability (NCI-H647; first compound 0.01581 µM) of the same molecule?
**A.** 0.411

**Q.** What about the relative viability (NCI-H647; first compound 0.05 µM) of the same molecule?
**A.** 0.27

**Q.** And the relative viability (NCI-H647; first compound 0.1581 µM)?
**A.** 0.128

**Q.** And the relative viability (NCI-H647; first compound 0.5 µM)?
**A.** 0.0883

**Q.** What about the relative viability (PC-14; first compound 0.005 µM) of the same molecule?
**A.** 0.282

**Q.** And the relative viability (PC-14; first compound 0.01581 µM)?
**A.** 0.236

**Q.** And the relative viability (PC-14; first compound 0.05 µM)?
**A.** 0.273

**Q.** What about the relative viability (PC-14; first compound 0.1581 µM) of the same molecule?
**A.** 0.17

**Q.** And the relative viability (PC-14; first compound 0.5 µM)?
**A.** 0.221

**Q.** What about the relative viability (EPLC-272H; first compound 0.005 µM) of the same molecule?
**A.** 0.717

**Q.** What about the relative viability (EPLC-272H; first compound 0.01581 µM) of the same molecule?
**A.** 0.756

**Q.** What about the relative viability (EPLC-272H; first compound 0.05 µM) of the same molecule?
**A.** 0.592

**Q.** And the relative viability (EPLC-272H; first compound 0.1581 µM)?
**A.** 0.315

**Q.** What about the relative viability (EPLC-272H; first compound 0.5 µM) of the same molecule?
**A.** 0.417

**Q.** What about the relative viability (LOU-NH91; first compound 0.005 µM) of the same molecule?
**A.** 0.735

**Q.** And the relative viability (LOU-NH91; first compound 0.01581 µM)?
**A.** 0.729

**Q.** And the relative viability (LOU-NH91; first compound 0.05 µM)?
**A.** 0.588

**Q.** What about the relative viability (LOU-NH91; first compound 0.1581 µM) of the same molecule?
**A.** 0.669

**Q.** And the relative viability (LOU-NH91; first compound 0.5 µM)?
**A.** 0.554

**Q.** And the relative viability (COR-L23; first compound 0.005 µM)?
**A.** 0.892

**Q.** And the relative viability (COR-L23; first compound 0.01581 µM)?
**A.** 0.668

**Q.** What about the relative viability (COR-L23; first compound 0.05 µM) of the same molecule?
**A.** 0.921

**Q.** And the relative viability (COR-L23; first compound 0.1581 µM)?
**A.** 0.235

**Q.** And the relative viability (COR-L23; first compound 0.5 µM)?
**A.** 0.138

**Q.** And the relative viability (NCI-H2405; first compound 0.005 µM)?
**A.** 0.937

**Q.** And the relative viability (NCI-H2405; first compound 0.01581 µM)?
**A.** 0.698

**Q.** What about the relative viability (NCI-H2405; first compound 0.05 µM) of the same molecule?
**A.** 0.637

**Q.** What about the relative viability (NCI-H2405; first compound 0.1581 µM) of the same molecule?
**A.** 0.483

**Q.** What about the relative viability (NCI-H2405; first compound 0.5 µM) of the same molecule?
**A.** 0.294

**Q.** What about the relative viability (NCI-H1563; first compound 0.005 µM) of the same molecule?
**A.** 0.935

**Q.** And the relative viability (NCI-H1563; first compound 0.01581 µM)?
**A.** 0.859

**Q.** What about the relative viability (NCI-H1563; first compound 0.05 µM) of the same molecule?
**A.** 0.497

**Q.** What about the relative viability (NCI-H1563; first compound 0.1581 µM) of the same molecule?
**A.** 0.926

**Q.** What about the relative viability (NCI-H1563; first compound 0.5 µM) of the same molecule?
**A.** 0.708
